According to PMC12040169 (PLOS Biology, 2025):

Legend:
[1] = test system: T1, CTL2-GFP (C. trachomatis L2/434/Bu, GFP-expressing); test: microbe, parasite or virus in culture; set-up: Intracellular C. trachomatis growth in HeLa cells, bulk GFP fluorescence relative to DMSO; conditions: Chlamydia trachomatis, HeLa, 28.5 h; bulk GFP, mean of 2; read-out: % of control remaining
T1 construct: L2/434/Bu, GFP-expressing
Protocol: MICs were calculated as described above.

[2] = test system: T2, C. trachomatis L2/434/Bu expressing GFP (CTL2-GFP); test: microbe, parasite or virus in culture; set-up: C. trachomatis total inclusion area by high-content imaging, normalised to DMSO; conditions: Chlamydia trachomatis, HeLa, 28.5 h; total inclusion area; read-out: % of control remaining
T2 construct: L2/434/Bu GFP intracellular growth in HeLa cells
Description: We screened a library of 36,785 small molecules displaying drug-like properties and covering a wide chemical space (Fig 1A and S2A Data). In this process, we also complemented the assay described above with an imaging-based readout (Fig 1B). After measurements of bulk GFP and resorufin fluorescence, cells were fixed, stained with the DNA dye Hoechst, and imaged at a high-content imaging platform to detect chlamydial inclusions (GFP) and host cell nuclei (Hoechst). The total area and number of inclusions in individual wells and the number of nuclei then served as additional proxies for chlamydial growth and host cell viability. […] MICs were calculated as described above.

in vitro [3] = test: in vitro; set-up: Viability of infected HeLa host cells, resazurin conversion, bulk resorufin fluorescence relative to DMSO; conditions: human, hela cells; bulk resorufin, mean of 2
in vitro [4] = conditions: human, hela cells, % viability

| Structure (SMILES) | activity at 1 µM [1] [%] | activity at 5 µM [1] [%] | activity at 10 µM [1] [%] | activity at 1 µM [2] [%] | activity at 5 µM [2] [%] | activity at 10 µM [2] [%] | viability at 28.5 h, 1 µM (in vitro [3]) [%] | viability at 28.5 h, 5 µM (in vitro [3]) [%] | viability at 28.5 h, 10 µM (in vitro [3]) [%] | viability at 28.5 h, 10 µM (in vitro [4]) [%] |
| --- | --- | --- | --- | --- | --- | --- | --- | --- | --- | --- |
| NC(Cc1ccccc1)CN(CC1(c2ccc(Cl)cc2)CC1)C(=O)Nc1ccc2c(c1)OCO2 (stereo not shown) [CBK002342C] | 211 | 102 | 98.8 | 109 | 43.5 | 54 | 95.3 | 95.4 | 93.5 |  |
| CCCCCC(=O)Nc1ccc(S(=O)(=O)Nc2nnc(CC)s2)cc1 [CBK045478] | 137 | 47.1 | 29.6 | 122 | 53 | 48.9 | 94.8 | 93.6 | 91.2 |  |
| Cc1noc(NS(=O)(=O)c2ccc(NC(=O)COc3cccc(Br)c3)cc2)c1C [CBK264086] | 96.8 | 38.7 | 17.8 | 93.1 | 45.5 | 20.6 | 89.3 | 91.3 | 94.3 |  |
| CC(=O)N1CCc2sccc2C1c1ccccc1NCc1ccoc1 (stereo not shown) [CBK286432] | 87.1 | 34 | 26.3 | 61.5 | 24.5 | 22.5 | 85 | 86.8 | 85.9 |  |
| CCC(CN1CCCC1)NC(=O)Cc1ccc(OC)c(C)c1 (stereo not shown) [CBK282752] | 100 | 50.3 | 19.9 | 108 | 47.2 | 26.1 | 108 | 112 | 108 |  |
| CCc1nnc(NS(=O)(=O)c2ccc(NC(=S)NC(=O)c3ccco3)cc2)s1 [CBK018917] | 117 | 56.1 | 18.8 | 79.7 | 57 | 24.2 | 100 | 94.7 | 115 |  |
| C[C@H](NC(=O)Cc1ccc(-c2ccccc2)cc1)c1nc2ccccc2[nH]1 [CBK296998] | 153 | 142 | 185 | 110 | 35.8 | 30.7 | 89.7 | 97.4 | 100 |  |
| Oc1ccc(Cn2cnc3ccccc32)c2cccnc12 [CBK291202] | 103 | 47.1 | 19.3 | 116 | 52.7 | 24.3 | 105 | 104 | 96 |  |
| COCCNc1nc2c(c(N3CCCCCC3)n1)CCNCC2 [CBK306724] | 76 | 7.81 | 4.81 | 79.4 | 0.64 | 0.424 | 98 | 97.9 | 92.9 |  |
| CN1CCN(c2ccc3ccn(S(=O)(=O)c4ccc([N+](=O)[O-])cc4)c3n2)CC1 [CBK070757C] | 140 | 89.2 | 46.7 | 106 | 64 | 24.6 | 89.6 | 87.7 | 86 |  |
| Cc1cccc(OCC(C)NC(=O)NCCc2cnn(C)c2)c1 (stereo not shown) [CBK304887] | 115 | 43.5 | 16.5 | 120 | 47.6 | 19.4 | 100 | 98.5 | 89.3 |  |
| CCCCC(=O)/N=C(\N)Nc1nc2ccccc2o1 [CBK287937] | 119 | 117 | 117 | 100 | 71.1 | 60.6 | 106 | 102 | 100 |  |
| Cc1cc(C(=O)Nc2ccc(S(=O)(=O)Nc3onc(C)c3C)cc2)no1 [CBK268166] | 113 | 81.5 | 33.7 | 89.9 | 77.7 | 61.3 | 101 | 92.7 | 100 |  |
| Cc1ccc(C(=O)/C=C\Nc2ccc(S(=O)(=O)Nc3cc(C)nc(C)n3)cc2)cc1 [CBK264384] | 110 | 72.4 | 31.8 | 79.2 | 51.7 | 35.8 | 107 | 108 | 104 |  |
| COc1cccc(CNC(C(=O)O)c2ccc3c(c2)OCO3)c1 (stereo not shown) [CBK015420D] | 107 | 30.9 | 12.5 | 103 | 49.9 | 20.3 | 92.7 | 92.5 | 87.4 |  |
| COc1cc(C=C2SC(NCC(=O)O)=NC2=O)ccc1OCc1ccc(Cl)cc1Cl [CBK297555] | 135 | 155 | 200 | 110 | 86.9 | 44 | 88.5 | 92.1 | 88.9 |  |
| CCC1C(c2ccc(C)cc2)=CCC(C(=O)NCCCN(C)C)C1C (stereo not shown) [CBK016514] | 112 | 33.9 | 9.47 | 109 | 44.4 | 8.47 | 104 | 88.9 | 100 |  |
| N#CC(CCCN1CCN(c2ccccc2)CC1)(c1ccccc1)c1ccccc1 [CBK002243C] | 106 | 74 | 41.5 | 42.5 | 23.5 | 17.3 | 99.6 | 105 | 118 |  |
| CC1=C[C@@H](CNS(C)(=O)=O)[C@H](C(C)C)C[C@H]1Cc1nnc(-c2ccccc2F)o1 [CBK289226] |  |  |  |  |  |  |  |  |  | 116 |
| CNC(=O)c1ccc(-c2ccc(C(C)=O)s2)nc1NCC1CC1 [CBK106307] |  |  |  |  |  |  |  |  |  | 95.3 |

| Structure (SMILES) | activity at 1 µM [1] [%] | activity at 5 µM [1] [%] | activity at 10 µM [1] [%] | activity at 1 µM [2] [%] | activity at 5 µM [2] [%] | activity at 10 µM [2] [%] | viability at 28.5 h, 1 µM (in vitro [3]) [%] | viability at 28.5 h, 5 µM (in vitro [3]) [%] | viability at 28.5 h, 10 µM (in vitro [3]) [%] | viability at 28.5 h, 10 µM (in vitro [4]) [%] |
| --- | --- | --- | --- | --- | --- | --- | --- | --- | --- | --- |
| COC(=O)c1sc2cc(C(F)(F)F)cnc2c1-c1ccccn1 [CBK089888] |  |  |  |  |  |  |  |  |  | 93.2 |
| O=C(NCCN1CCOCC1)C1CC2CCC1C2 (stereo not shown) [CBK026764] |  |  |  |  |  |  |  |  |  | 115 |
| Cn1cc(CCNC(=O)N2CCCN(Cc3cccs3)CC2)cn1 [CBK305393] |  |  |  |  |  |  |  |  |  | 89.1 |
| CSc1ccc(-c2cnc(N)c(-c3ccc(C(=O)N4CCOCC4)cc3)n2)cc1 [CBK084539] |  |  |  |  |  |  |  |  |  | 109 |
| CN(CCCNC(=O)c1ncoc1-c1cccs1)c1ccccc1 [CBK282248] |  |  |  |  |  |  |  |  |  | 103 |
| CN(CC1CCN(C(=O)OC(C)(C)C)CC1)c1ccnc(-c2ccncc2)n1 [CBK166064] |  |  |  |  |  |  |  |  |  | 101 |
| CC(C)c1csc(NC(=O)CC2CCN(C(=O)CC3CCCCC3)CC2)n1 [CBK285963] |  |  |  |  |  |  |  |  |  | 82.3 |
| COC(=O)CCn1c(=O)c2c(nc3oc(C(C)(C)C)cn32)n(C)c1=O [CBK306034] |  |  |  |  |  |  |  |  |  | 87.7 |
| O=C(O)CC1C(=O)NCCN1Cc1ccc(F)c(F)c1 (stereo not shown) [CBK270008] |  |  |  |  |  |  |  |  |  | 85.3 |
| Cc1cccc(C(=O)O)c1NC(=O)Cc1cccc2ccccc12 [CBK268361] |  |  |  |  |  |  |  |  |  | 111 |
| COc1ccccc1Cc1cccc(C2CCN(C(=O)Cc3ccccc3)CC2)n1 [CBK286240] |  |  |  |  |  |  |  |  |  | 88.1 |
| CN(C)CC(C)(C)CNC(=O)c1ccccc1-n1cccc1 [CBK149600] |  |  |  |  |  |  |  |  |  | 92.3 |
| COc1ccc(-c2nnc(SCC(=O)NC(=O)c3ccccc3)n2CC(C)C)cc1 [CBK297527] |  |  |  |  |  |  |  |  |  | 101 |
| CCOC(=O)Nc1ccc2c(c1)N(C(=O)CN1CCOCC1)c1ccccc1CC2 [CBK261286C] |  |  |  |  |  |  |  |  |  | 101 |
| Cc1cc(=O)oc2cc(NC(=S)NNC(=O)C(C)Oc3ccc4c(c3)CCC4)ccc12 (stereo not shown) [CBK267031] |  |  |  |  |  |  |  |  |  | 91.4 |
| CCn1cc(-c2cncn2CCN(C)C2CCCC2)cn1 [CBK281551] |  |  |  |  |  |  |  |  |  | 90.7 |
| Cc1nc(N2CCN(Cc3ccc4c(c3)OCO4)CC2)c2c(C)c(C)sc2n1 [CBK266739] |  |  |  |  |  |  |  |  |  | 100 |
| CCc1noc(C)c1C(=O)N1CCN(C2CCCC2O)CC1 (stereo not shown) [CBK304869] |  |  |  |  |  |  |  |  |  | 78 |
| COc1ccc(S(=O)(=O)N(CC(=O)O)C2CCCCC2)cc1Cl [CBK267997] |  |  |  |  |  |  |  |  |  | 81.5 |
| Cc1ccc(C(=O)NNC(=O)c2cccnc2)cc1 [CBK261045] |  |  |  |  |  |  |  |  |  | 94 |
